One data set relates to HTLV-I. The data set can be described thus: Co-culture assay for HTLV-I, virus replication by p19 Gag ELISA. Type of data set: cell-based. Conditions: for concentration inhibiting HTLV-I replication as measured by p19 ELISA: 2 weeks; for EC50: read-out: HTLV-I EC50; for antiviral activity: 2 weeks post infection, up to 25 μM; for suppression of virus replication greater than 50% (p19 ELISA): 2 and 4 weeks co-culture; for concentration inhibiting HTLV-I virus replication from infected PBMCs: 3 weeks post-infection. The method, then: PBMC Preparation: Fresh human peripheral blood mononuclear cells (PBMCs), obtained from Biological Specialty Corporation, Bristol, Pa., were confirmed as seronegative for HIV and HBV. Depending on the volume of the donor blood received, the leukophoresed blood cells were washed several times with PBS. After washing, the leukophoresed blood was diluted 1:1 with Dulbecco's phosphate buffered saline (PBS) and layered over 15 mL of Ficoll-Hypaque density gradient in a 50 mL conical centrifuge tube. These tubes were then centrifuged for 30 min at 600 g. Banded PBMCs were gently aspirated from the resulting interface and subsequently washed three times with PBS by low speed centrifugation. After the final wash, cells were enumerated by trypan blue dye exclusion and re-suspended at 1×10^6 cells/mL in RPMI 1640 with 15% Fetal Bovine Serum (FBS), 2 mmol/L L-glutamine, 2 μg/mL phytohemagglutinin (PHA-P), 100 Units/mL penicillin and 100 μg/mL streptomycin and allowed to incubate for 48-72 hr at 37° C.
After incubation, PBMCs were centrifuged and resuspended in PBMC medium (RPMI 1640 with 15% FBS, 2 mmol/L L-glutamine, 100 U/mL penicillin, 100 μg/mL streptomycin and 20 U/mL recombinant human IL-2). The cultures were then maintained for the remainder of the experiment by exchange of half the culture volume with fresh IL-2 containing tissue culture medium every 3 days. Assays were initiated with PBMCs that had been induced to proliferate for 72 hr. Stimulated PBMCs from two donors were pooled together to minimize the variability between individual donors and 8×10^6 cells were resuspended in 9 mL of fresh tissue culture medium per T25 flask.
HDP-TFV was evaluated at concentrations of 0.04, 0.2, 1 and 10 μM. AZT and tenofovir were evaluated at concentrations of 0.1, 1, 5 and 25 μM. HDP-TFV, AZT, or tenofovir were added to the PBMCs 10 hours prior to infection.
MT-2 Preparation: MT-2 cells were obtained from the NIH AIDS Research and Reference Reagent Program and passaged in T-75 flasks in RPMI 1640 medium, supplemented with 10% heat inactivated fetal bovine serum, 2 mmol/L L-glutamine, 100 U/ml penicillin and 100 μg/ml streptomycin. Total cell and viability quantification were performed using hemocytometer and trypan blue dye exclusion. The cells were incubated in 10 mL of 200 μg/mL mitomycin C for 1 hour at 37° C./5% CO2, washed 3 times in Dulbecco's phosphate buffered saline (DPBS), and resuspended in PBMC medium at 1.6×10^6 cells per mL. One mL of treated MT-2 cells was added to each T25 flask, except for the PBMC only control.
(§1) Co-Culture for HTLV-I Replication: Cell cultures were incubated at 37° C./5% CO2 for four weeks. Cell viability and density was monitored by trypan blue dye exclusion test. Cell density was readjusted to 8×10^5 cells per mL on days 3, 7, 10, 14, 21 and 28. Compound was added with the half-volume fresh medium exchange on days 3, 7, and 10. Supernatant was collected on days 14, 21 and 28 for measurement of HTLV-I virus replication by p19 Gag ELISA. Cell samples were also collected on days 14 and 28 for genomic DNA extraction and PCR analysis of HTLV-I proviral DNA. Untreated PBMCs co-cultured with MT-2 cells, PBMCs alone, and mitomycin C-treated MT-2 cells alone were cultured in parallel as controls.
HTLV-I p19 Gag ELISA: ELISA was performed to quantify p19 in cell-free supernatants according to the manufacturer's instructions (ZeptoMetrix, Buffalo, N.Y.). Briefly, 50 μL of the kit p19 standard was added to 950 μL assay diluent in microtiter tubes and serially diluted 1:2. After washing the microtiter plate with 1× plate wash buffer, 200 μL of the diluted standards were added in duplicate to the coated wells. In duplicate, 200 μL of media was added as negative controls. Cell culture supernatants were diluted 1:9 with media and mixed with 50 μL of lysis buffer in duplicate. Two hundred microliters of diluted sample was added to the coated wells and incubated at 37° C. for 2 hours. […]

For a further data set, the system named is infected PBMCs. The data set can be described thus: Cell viability of infected PBMCs by trypan blue dye exclusion. Format: cell-based, human. Conditions: for toxicity as fresh compound was added to the cultures up to day 10: infected PBMC cultures; for CC50: infected PBMCs, read-out: HTLV-I TC50. The protocol:
as §1
(§2) Anti-HTLV-I Evaluations: HDP-TFV K^+ salt and tenofovir were evaluated for HTLV-I inhibition in human PBMCs co-cultured with mitomycin C treated MT-2 cells at four concentrations of each compound. AZT was evaluated in parallel as a control compound. […] Cell viability was monitored by trypan blue dye exclusion. AZT and tenofovir were not toxic to the infected PBMCs at concentrations up to 25 μM at 2, 3, or 4 weeks post infection.
(§3) Anti-HTLV-I Evaluations: HDP-CDV and cidofovir were evaluated for HTLV-I inhibition in human PBMCs co-cultured with mitomycin C treated MT-2 cells at four concentrations of each compound. AZT was evaluated in parallel as a control compound. […] Cell viability was monitored by trypan blue dye exclusion. AZT was not toxic to the infected PBMCs at concentrations up to 25 μM at 2, 3, or 4 weeks post infection.

Test in data set [1]: as above
Format: cell-based, human. Conditions: human, infected PBMCs, read-out: HTLV-I TC50; for CC50 at 2 weeks: 2 wks post infection; for CC50 at 3 weeks: 3 wks post infection; for CC50 at 4 weeks: 4 wks post infection. The protocol:
as §1, §2, §3

Where [2] appears, read: Primate T-lymphotropic virus 1, MT2, 336 h, 2 wks post infection, human PBMCs co-cultured with mitomycin C treated MT-2 cells.
The mark [3] stands for this setting: Primate T-lymphotropic virus 1, MT2, 504 h, 3 wks post infection, human PBMCs co-cultured with mitomycin C treated MT-2 cells.
[4] abbreviates: Primate T-lymphotropic virus 1, MT2, 672 h, 4 wks post infection, human PBMCs co-cultured with mitomycin C treated MT-2 cells.
Setting [5] is: concentrations up to 25 μM at 2, 3, or 4 weeks post infection.

Entries after “also recorded” stand apart in the source; their conditions may differ. Where two headings read alike, the source gives them in different places.

We go through five compounds from patent publication US20140011769A1, “Methods of Treating Retroviral Infections and Related Dosage Regimes” (Chimerix, Inc., priority 2012, published 2014).

For the compound `CCCCCCCCCCCCCCCCOCCCOP(=O)(O)CO[C@H](C)Cn1cnc2c(N)ncnc21` [HDP-TFV, 3-(hexadecyloxy)propyl hydrogen ((R)-1-(6-amino-9H-purin 9-yl)propan-2-yloxy)methylphosphonate], the “concentration inhibiting HTLV-I replication as measured by p19 ELISA” value in the data set on HTLV-I is “above 7 μM”. Besides, the concentration for a half-maximal effect (EC50) in the data set with HTLV-I (Primate T-lymphotropic virus 1, MT2, 336 h) was found to be 6.8 µM. Also, the EC50 in the data set with HTLV-I (Primate T-lymphotropic virus 1, MT2, 504 h) is 0.9 µM. Besides, in the data set on HTLV-I (Primate T-lymphotropic virus 1, MT2, 672 h), the EC50 was found to be 0.2 µM. Further, the “toxicity as fresh compound was added to the cultures up to day 10” value with infected PBMCs was “increasingly toxic”. Further, in data set [1], the CC50 at 2 weeks is > 10 µM, the CC50 at 3 weeks was found to be 6.3 µM and the CC50 at 4 weeks came out at 1000 nM.
`Cc1cn([C@H]2C[C@H](N=[N+]=[N-])[C@@H](CO)O2)c(=O)[nH]c1=O` [AZT, 3′-azido-2′,3′-dideoxythymidine]: in the data set with HTLV-I, the “concentration inhibiting HTLV-I replication as measured by p19 ELISA” value is recorded as “above 3 μM” and the antiviral activity entry is on record as “no antiviral activity”. Also, in the data set on HTLV-I (setting [2]), the EC50 was > 25 µM. Further, the EC50 in the data set on HTLV-I (setting [3]) came out at 3.2 µM. Also, the EC50 with HTLV-I (setting [4]) stood at 2.6 µM. For the same compound, in the data set with infected PBMCs (setting [5]), the “toxicity to the infected PBMCs” value was “not toxic”. Also, in data set [1], the CC50 at 2 weeks was > 25 µM, the CC50 at 3 weeks was > 25 µM and the CC50 at 4 weeks is > 25000 nM.
With `C[C@H](Cn1cnc2c(N)ncnc21)OCP(=O)(O)O` [Tenofovir, (R)-9-(2-phosphonylmethoxypropyl)adenine], in the data set on HTLV-I, the antiviral activity result is reported as “no antiviral activity”. The EC50 was > 25 µM in the data set on HTLV-I (2 wks post infection, human PBMCs co-cultured with mitomycin C treated MT-2 cells); 10.3 µM in the data set on HTLV-I (3 wks post infection, human PBMCs co-cultured with mitomycin C treated MT-2 cells); 4.5 µM with HTLV-I (4 wks post infection, human PBMCs co-cultured with mitomycin C treated MT-2 cells). Besides, the CC50 with infected PBMCs (2 wks post infection), with infected PBMCs (3 wks post infection) and in the data set with infected PBMCs (4 wks post infection) was > 25 µM throughout. Moreover, the “toxicity to the infected PBMCs” value with infected PBMCs (setting [5]) was “not toxic”.
Turning to `CCCCCCCCCCCCCCCCOCCCOP(=O)(O)CO[C@H](CO)Cn1ccc(N)nc1=O` [HDP-CDV, hexadecyloxypropyl cidofovir], in the data set on HTLV-I, the “suppression of virus replication greater than 50% (p19 ELISA)” value is “did not suppress; also recorded: not reached” and the “concentration inhibiting HTLV-I virus replication from infected PBMCs” value is “above 3 μM”. Also, in the data set on HTLV-I (setting [2]), the EC50 was > 10 µM. In the data set with HTLV-I (setting [3]), the EC50 is 0.4 µM. Further, the EC50 with HTLV-I (setting [4]) was > 10 µM. Besides, the “concentration showing moderate antiviral activity” value in the data set on HTLV-I (four weeks of infected PBMC culture, inhibition may be attributed to observed toxicity) is ≥ 0.2 µM. Besides, the “toxicity as fresh compound was added to the cultures up to day 10” value in the data set on infected PBMCs was “increasingly toxic”. In addition, in data set [1], the CC50 at 2 weeks stood at 7.5 µM, the CC50 at 3 weeks worked out at 3.2 µM and the CC50 at 4 weeks was determined as 1400 nM.
For the compound `Nc1ccn(C[C@@H](CO)OCP(=O)(O)O)c(=O)n1` [Cidofovir, (S)-9-(3-hydroxy-2-phosphonylmethoxypropyl)cytosine], in the data set on HTLV-I, the “suppression of virus replication greater than 50% (p19 ELISA)” value is reported as “did not suppress” and the “concentration inhibiting HTLV-I virus replication from infected PBMCs” value is 100 µM. Moreover, the “suppression of virus replication greater than 50% (p19 ELISA)” value in the data set on HTLV-I (listed as cidofovir) is on record as “not reached”. For the same compound, the EC50 in the data set on HTLV-I (setting [2]) was > 100 µM. In addition, the EC50 in the data set with HTLV-I (setting [3]) is 87.8 µM. The EC50 in the data set on HTLV-I (setting [4]) is > 100 µM. The “toxicity to the infected PBMCs” value with infected PBMCs (100 μM, following 4 weeks in culture) is “slightly toxic”. For the same compound, in data set [1], the CC50 at 2 weeks is > 100 µM, the CC50 at 3 weeks was > 100 µM and the CC50 at 4 weeks turned out to be 80000 nM.

Usually EC50 stands for the midpoint of the concentration-response curve.
